Test results as given in the supplement of paper PMC5412046.

Assays:
SB.mhdgc-1 [1] = experiment: viability at highest tested concentration (MAXR) relative to DMSO; higher = less cytotoxic; details: SB.mhdgc-1 (hereditary c.1380delA CDH1 gastric cancer)
Method in brief: (§1)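 Hereditary or sporadic patient-derived gastric cancer cells (500 cells in 5 μL medium per 1536 well) received 23 nL compound in DMSO by pintool at 11 threefold-diluted concentrations, with the top concentration recorded per compound. After 48 h, CellTiter-Glo was added for 30 min at room temperature and luminescence read on a ViewLux. Values are DMSO-normalised viability, either at the highest concentration or as trapezoidal area under the curve.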

SB.msgc-1 [2] = experiment: as above; details: SB.msgc-1 (sporadic gastric cancer)
Method in brief: as §1

SB.mhdgc-1 [3] = experiment: area under the dose-response curve of % viability (trapezoidal, 11 doses) (% viability x log10 concentration); higher = less cytotoxic; details: SB.mhdgc-1 (hereditary c.1380delA CDH1 gastric cancer)
Method in brief: as §1

SB.msgc-1 [4] = experiment: as above; details: SB.msgc-1 (sporadic gastric cancer)
Method in brief: as §1

| Structure (SMILES) | viability (SB.mhdgc-1 [1]) | viability (SB.msgc-1 [2]) | area under the dose-response curve (SB.mhdgc-1 [3]) | area under the dose-response curve (SB.msgc-1 [4]) |
| --- | --- | --- | --- | --- |
| CC(=O)NCC(=O)N1[C@@H]2CC[C@H]1c1ccc(Nc3ncc(C(F)(F)F)c(NC4CCC4)n3)cc12 (top concentration 46.0829 µM) | 19.9% | 37.4% | 402 | 472 |
| CC(C)(C)Cn1c(N)nc2ccc(-c3[nH]c(C(C)(C)C)nc3-c3ccc(F)cc3)nc21 (top concentration 46.0829 µM) | 20.3% | 21.3% | 432 | 476 |
| CC(C)c1cc(C(=O)N2Cc3ccc(CN4CCN(C)CC4)cc3C2)c(O)cc1O (top concentration 46.0829 µM) | 9.31% | 43% | 443 | 348 |
| CC(C)c1noc(N2CCC(COc3ccc(-c4ccc([S+](C)(=O)[O-])cc4)nc3)CC2)n1 (top concentration 46.0829 µM) | 80.1% | 72.3% | 621 | 537 |
| CC(C)N(CC[C@H](c1ccccc1)c1cc(CO)ccc1O)C(C)C (top concentration 46.0829 µM) | 101% | 110% | 494 | 498 |
| CC(C)[C@@H](N(CCCN)C(=O)C1=CC=C(C)C=C1)C/2=C(\CC3=CC=CC=C3)C(=O)C4=C(O2)C=C(Cl)C=C4 (top concentration 46.0829 µM) | 3.56% | 18% | 290 | 196 |
| CC/1=C(\CCN2CCC(CC2)C3=NOC4=C3C=CC(=C4)F)C(=O)N/5CCCCC5=N1 (top concentration 46.0829 µM) | 65.9% | 81.5% | 402 | 506 |
| Cc1[nH]c(/C=C2\C(=O)Nc3ccc([S+](=O)([O-])Cc4c(Cl)cccc4Cl)cc32)c(C)c1C(=O)N1CCC[C@@H]1CN1CCCC1 (top concentration 46.0829 µM) | 0.132% | -1.67% | 545 | 462 |
| CC1=C2N=C([NH]C2=CC(=C1)N3CCOCC3)\C4=C(NC[C@@H](O)C5=CC=CC(=C5)Cl)\C=C/NC4=O (top concentration 46.0829 µM) | 21% | 28.1% | 314 | 418 |
| CC1COC2(CCN(CC2)C/3=N/C(=O)C4=CC(=CC(=C4S3)[N+]([O-])=O)C(F)(F)F)O1 (stereo unspecified) (top concentration 46.0829 µM) | 45% | 69.9% | 428 | 520 |
| CCc1cc2c(cc1N1CCC(N3CCOCC3)CC1)C(C)(C)c1[nH]c3cc(C#N)ccc3c1C2=O (top concentration 46.0829 µM) | 1.11% | 61.4% | 395 | 473 |
| CCc1cccc(CC)c1NC(=O)N1Cc2[nH]nc(NC(=O)c3ccc(N4CCN(C)CC4)cc3)c2C1 (top concentration 46.0829 µM) | 65.1% | 59% | 423 | 505 |
| CCCCOc1c(C(=O)c2c(F)cc(C)cc2F)cnc2[nH]ncc12 (top concentration 46.0829 µM) | 39.2% | 43.7% | 370 | 460 |
| CCNC(=O)Nc1ccc2ncc(Nc3ccc(C)cc3)nc2n1 (top concentration 46.0829 µM) | 20.8% | 27% | 307 | 347 |
| CCn1cc(-c2ccnc3[nH]c(-c4cccc(CN(C)C)c4)cc23)c(-c2ccc(NC(=O)N(C)C)cc2)n1 (top concentration 46.0829 µM) | 32.2% | 15.2% | 367 | 450 |
| CN(C)C(=O)[C@H](O)[C@H](Cc1ccccc1)NC(=O)c1cc2cc(Cl)ccc2[nH]1 (top concentration 46.0829 µM) | 59.6% | 55.1% | 476 | 476 |
| CN(C)c1ccc(-c2nc3c(N4CCN(CC(=O)Nc5nccs5)CC4)c(Cl)cnc3[nH]2)cc1 (top concentration 46.0829 µM) | 42.8% | 73% | 410 | 460 |
| CN(C)Cc1cccc(N/C(=C2\C(=O)Nc3cc(C(=O)N(C)C)ccc32)c2ccccc2)c1 (top concentration 46.0829 µM) | 6.66% | 35.3% | 316 | 452 |
| Cc1nc(-c2ccc(-c3ccc(C(=O)N4CCc5cc6c(cc54)C4(CCN(C)CC4)CO6)cc3)c(C)c2)no1 (top concentration 46.0829 µM) | 114% | 87.7% | 592 | 519 |
| Cc1cc(CN2CCN(c3c(Br)cnc4[nH]c(-c5ccc(N6CCN(C)CC6)cc5)nc34)CC2)no1 (top concentration 46.0829 µM) | 1.37% | 3.36% | 440 | 517 |
| CNC(=O)c1c(F)cccc1Nc1nc(Nc2cc3c(cc2OC)CCN3C(=O)CN(C)C)nc2[nH]ccc12 (top concentration 46.0829 µM) | 1.17% | 2.95% | 302 | 460 |
| CNC(=O)c1ccc2c(c1)NC(=O)/C2=C(\Nc1cccc(CN(C)C)c1)c1ccccc1 (top concentration 46.0829 µM) | 41.1% | 64.9% | 413 | 518 |
| CNC(=O)Nc1ccc(-c2nc(N3CC4CCC(C3)O4)c3cnn(C4CCC5(CC4)OCCO5)c3n2)cc1 (top concentration 46.0829 µM) | 3.97% | 40.1% | 268 | 388 |
| CN\1C(=O)/C(=C(\N=C1N2CCCC[S+]2([O-])=O)C(=O)NCC3=CC=C(F)C=C3)O (top concentration 46.0829 µM) | 130% | 99.9% | 620 | 544 |
